{"source": "paper PMC9600929", "about": "“Structural and Mechanistic Bases of Viral Resistance to HIV-1 Capsid Inhibitor Lenacapavir” (mBio, 2022)", "key": {"[1]": {"biological_target": "cross-linked HIV-1 CA(WT) hexamer (Human immunodeficiency virus type 1 group M subtype B, UniProt P12493, A146C/E177C/M317A/W316A)", "assay": "SPR binding to cross-linked CA(WT) hexamers"}, "HIV-1NL4-3 Q67H/K70R CA": {"system": "HIV-1NL4-3 Q67H/K70R CA", "assay": "microbe, parasite or virus in culture", "format": "cell-based", "settings": "for EC50: Human immunodeficiency virus 1, MT4, HIV-1NL4-3 Q67H/K70R CA, MT-4 cells, mean ± SD"}, "in vitro": {"assay": "in vitro", "format": "cell-based", "settings": "human; from cytotoxicity (Fig. S7) and antiviral activity (Fig. 5C); read-out: selectivity index", "description": "(§1) MT4 cells in complete RPMI were mixed with the indicated concentrations of compounds on 96-well plates (1 × 10^4 cells per well). Cells were kept in a humidified 37°C incubator for 2 days. The effect of test compounds on cell viability was measured using CellTiter-Glo (Promega, G7570)."}, "MT4 cells": {"system": "MT4 cells", "assay": "in vitro", "format": "cell-based", "settings": "MT4 cells, 2 days, CellTiter-Glo", "description": "as §1"}, "[2]": {"biological_target": "T1, cross-linked HIV-1 CA(Q67H/N74D) hexamer (Human immunodeficiency virus type 1 group M subtype B, UniProt P12493, A146C/E177C/M317A/N206D/Q199H/W316A)", "T1 construct": "Expression, purification and assembly of recombinant CA; made in house; host or cells: E. coli BL21-DE3 (pET3a)", "assay": "biochemical", "format": "binding"}, "HIV-1NL4-3 Q67H/N74D CA": {"system": "HIV-1NL4-3 Q67H/N74D CA", "assay": "microbe, parasite or virus in culture", "format": "cell-based", "settings": "for EC50: Human immunodeficiency virus 1, MT4"}, "HIV-1NL4-3 WT CA": {"system": "HIV-1NL4-3 WT CA", "assay": "microbe, parasite or virus in culture", "format": "cell-based", "settings": "Human immunodeficiency virus 1, MT4"}, "HIV-1NL4-3 Q67H CA": {"system": "HIV-1NL4-3 Q67H CA", "assay": "microbe, parasite or virus in culture", "format": "cell-based", "settings": "for EC50: Human immunodeficiency virus 1, MT4"}, "HIV-1NL4-3 N74D CA": {"system": "HIV-1NL4-3 N74D CA", "assay": "microbe, parasite or virus in culture", "format": "cell-based", "settings": "for EC50: Human immunodeficiency virus 1, MT4"}, "HIV-1(M66I CA)": {"system": "HIV-1(M66I CA)", "format": "cell-based", "settings": "early stage antiviral activity"}, "HIV-1 integration": {"system": "HIV-1 integration", "parameters": "method as in PMID 32612233, PMID 31501601, PMID 33060363", "settings": "during virus ingress; cited from earlier work"}, "[3]": {"biological_target": "cross-linked HIV-1 CA(Q67H) hexamer (Human immunodeficiency virus type 1 group M subtype B, UniProt P12493, A146C/E177C/M317A/Q199H/W316A)", "assay": "SPR binding to cross-linked CA(Q67H) hexamers"}, "HIV-1 nuclear import": {"system": "HIV-1 nuclear import", "parameters": "method as in PMID 32612233, PMID 31501601, PMID 33060363", "settings": "during virus ingress; cited from earlier work"}, "[4]": {"system": "HIV-1 reverse transcription", "parameters": "method as in PMID 32612233, PMID 31501601, PMID 33060363", "settings": "during virus ingress; cited from earlier work"}, "[5]": {"biological_target": "cross-linked HIV-1 CA(N74D) hexamer (Human immunodeficiency virus type 1 group M subtype B, UniProt P12493, A146C/E177C/M317A/N206D/W316A)", "assay": "SPR binding to cross-linked CA(N74D) hexamers"}, "[6]": {"settings": "WT compared to WT CA (reference)"}}, "note": "“And” between values parts separate entries of the source, which are not always exact repeats. Identical values can stand only once."}
{"smiles": "CC(C)(C#Cc1ccc(-c2ccc(Cl)c3c(NS(C)(=O)=O)nn(CC(F)(F)F)c23)c([C@H](Cc2cc(F)cc(F)c2)NC(=O)Cn2nc(C(F)(F)F)c3c2CCCC3)n1)S(C)(=O)=O", "note": "[KFA-012]", "values": [{"measurement": "improved binding affinity compared with parental LEN", "setting": "[1]; CA(WT) hexamer, SPR", "result": "~ 2 fold"}, {"measurement": "Fold increase of KFA-012 potency versus LEN potency", "setting": "HIV-1NL4-3 Q67H/K70R CA; HIV-1NL4-3 Q67H/K70R CA", "result": "~ 1.7 fold"}, {"measurement": "EC50", "setting": "HIV-1NL4-3 Q67H/K70R CA", "result": "0.883 ± 0.17", "unit": "nM"}, {"measurement": "selectivity ratio at 2 days", "setting": "in vitro", "result": "> 10000"}, {"measurement": "compound concentrations with adverse effects on cell viability", "setting": "MT4 cells", "result": "> 3", "unit": "µM"}, {"measurement": "concentration up to which no cytotoxicity was observed", "setting": "MT4 cells", "result": "up to 781 nM"}, {"measurement": "improved binding affinity compared with parental LEN", "setting": "[2]; CA(Q67H/N74D) hexamer, SPR", "result": "~ 2 fold"}, {"measurement": "Fold increase of KFA-012 potency versus LEN potency", "setting": "HIV-1NL4-3 Q67H/N74D CA; HIV-1NL4-3 Q67H/N74D CA", "result": 2.6, "unit": "fold"}, {"measurement": "EC50", "setting": "HIV-1NL4-3 Q67H/N74D CA", "result": 9.18, "unit": "nM"}, {"measurement": "EC50", "setting": "HIV-1NL4-3 WT CA", "result": "0.071 ± 0.006", "unit": "nM"}, {"measurement": "Fold increase of KFA-012 potency versus LEN potency", "setting": "HIV-1NL4-3 Q67H CA; HIV-1NL4-3 Q67H CA", "result": 1.8, "unit": "fold"}, {"measurement": "EC50", "setting": "HIV-1NL4-3 Q67H CA", "result": "0.335 ± 0.01", "unit": "nM"}, {"measurement": "EC50", "setting": "HIV-1NL4-3 N74D CA", "result": "0.633 ± 0.014", "unit": "nM"}, {"measurement": "susceptibility of the virus to the inhibitor", "setting": "HIV-1(M66I CA)", "result": "fully resistant"}]}
{"smiles": "CC(C)(C#Cc1ccc(-c2ccc(Cl)c3c(NS(C)(=O)=O)nn(CC(F)(F)F)c23)c([C@H](Cc2cc(F)cc(F)c2)NC(=O)Cn2nc(C(F)(F)F)c3c2C(F)(F)[C@@H]2C[C@H]32)n1)S(C)(=O)=O", "note": "[LEN, Lenacapavir]", "values": [{"measurement": "EC50", "setting": "HIV-1 integration", "result": "0.05 to 0.5", "unit": "nM"}, {"measurement": "association rate constant (kon)", "setting": "[1]; CA (WT), mean ± SD", "result": "7.0 ± 1.6 x 10^4 M^-1s^-1"}, {"measurement": "dissociation rate constant (koff)", "setting": "[1]; CA (WT), mean ± SD", "result": "1.5 ± 0.2 x 10^-5 s^-1"}, {"measurement": "Kd", "setting": "[1]; CA (WT), mean ± SD, three independent experiments, read-out: equilibrium dissociation constant (KD)", "result": "0.23 ± 0.08", "unit": "nM"}, {"measurement": "KD fold change", "setting": "[1]; [6]", "result": 1, "unit": "fold"}, {"measurement": "koff fold change", "setting": "[1]; [6]", "result": 1, "unit": "fold"}, {"measurement": "kon fold change", "setting": "[1]; [6]", "result": 1, "unit": "fold"}, {"measurement": "EC50", "setting": "HIV-1NL4-3 Q67H/K70R CA", "result": "1.5 ± 0.023", "unit": "nM"}, {"measurement": "association rate constant (kon)", "setting": "[3]; CA (Q67H), mean ± SD", "result": "6.4 ± 1.1 x 10^4 M^-1s^-1"}, {"measurement": "dissociation rate constant (koff)", "setting": "[3]; CA (Q67H), mean ± SD", "result": "7.3 ± 1.0 x 10^-5 s^-1"}, {"measurement": "Kd", "setting": "[3]; CA (Q67H), mean ± SD, read-out: equilibrium dissociation constant (KD)", "result": 1.2, "unit": "nM"}, {"measurement": "koff fold change", "setting": "[3]; Q67H CA compared to WT CA", "result": 5, "unit": "fold"}, {"measurement": "kon fold change", "setting": "[3]; Q67H CA compared to WT CA", "result": 0.9, "unit": "fold"}, {"measurement": "EC50", "setting": "HIV-1 nuclear import", "result": "0.5 to 5", "unit": "nM"}, {"measurement": "association rate constant (kon)", "setting": "[2]; CA (Q67H/N74D), mean ± SD", "result": "3.0 ± 0.9 x 10^4 M^-1s^-1"}, {"measurement": "dissociation rate constant (koff)", "setting": "[2]; CA (Q67H/N74D), mean ± SD", "result": "1.1 ± 0.5 x 10^-3 s^-1"}, {"measurement": "Kd", "setting": "[2]; CA (Q67H/N74D), mean ± SD, read-out: equilibrium dissociation constant (KD)", "result": 34.1, "unit": "nM"}, {"measurement": "koff fold change", "setting": "[2]; Q67H/N74D CA compared to WT CA", "result": 73, "unit": "fold"}, {"measurement": "kon fold change", "setting": "[2]; Q67H/N74D CA compared to WT CA", "result": 0.4, "unit": "fold"}, {"measurement": "EC50", "setting": "HIV-1NL4-3 Q67H/N74D CA", "result": 24.2, "unit": "nM"}, {"measurement": "EC50", "setting": "HIV-1NL4-3 WT CA", "result": "0.091 ± 0.01", "unit": "nM"}, {"measurement": "EC50", "setting": "[4]", "result": "5 to 50", "unit": "nM"}, {"measurement": "EC50", "setting": "HIV-1NL4-3 Q67H CA", "result": "0.611 ± 0.01", "unit": "nM"}, {"measurement": "decreased potency of the inhibitor with respect to the CA variant", "setting": "HIV-1NL4-3 Q67H CA; Q67H CA variant versus WT", "result": 7, "unit": "fold"}, {"measurement": "EC50", "setting": "HIV-1NL4-3 N74D CA", "result": "0.902 ± 0.027", "unit": "nM"}, {"measurement": "decreased virus susceptibility to the inhibitor", "setting": "HIV-1NL4-3 N74D CA; {}", "result": "~ 10 fold"}, {"measurement": "association rate constant (kon)", "setting": "[5]; CA (N74D), mean ± SD", "result": "3.0 ± 0.3 x 10^4 M^-1s^-1"}, {"measurement": "dissociation rate constant (koff)", "setting": "[5]; CA (N74D), mean ± SD", "result": "1.4 ± 0.02 x 10^-4 s^-1"}, {"measurement": "Kd", "setting": "[5]; CA (N74D), mean ± SD, read-out: equilibrium dissociation constant (KD)", "result": 4.6, "unit": "nM"}, {"measurement": "koff fold change", "setting": "[5]; N74D CA compared to WT CA", "result": "~ 10 fold and 9 fold"}, {"measurement": "kon fold change", "setting": "[5]; N74D CA compared to WT CA", "result": 0.4, "unit": "fold"}, {"measurement": "adverse effect on association rate constant", "setting": "[5]; N74D CA versus WT CA, stated as fold adverse effect", "result": "~ 2 fold"}, {"measurement": "susceptibility of the virus to the inhibitor", "setting": "HIV-1(M66I CA)", "result": "fully resistant"}]}
